Reference: US8916702B2 (priority 2012, dated 2014)
pEC50: −log10 of the molar value.

The molecules below were run on HCV pseudoparticles (genotype 1a HCV E1 and E2 envelope, H77C isolate) (assay: microbe, parasite or virus in culture). Settings: HCV pseudoparticles (genotype 1a, H77C) in Huh7 cells; average of duplicate; luciferase 2 days after infection.
Assay type: cell-based

SMILES | pEC50
COC(=O)[C@H](CCNC(=O)C(=O)Nc1ccc(C)cc1)NC(=O)c1ccc(Nc2nc(NC3(c4ccc(Cl)cc4)CC3)nc(OCC(F)(F)F)n2)cc1 [Compound 3217] | 10.06

Same assay, conditions: Hepatitis C virus, Huh-7, 48 h, HCV pseudoparticle infection of Huh7 cells, luciferase 2 days after infection; average of duplicates

SMILES | pEC50
O=C(NCC[C@H](NC(=O)c1ccc(Nc2nc(NC3(c4ccc(Cl)cc4)CC3)nc(OCC(F)(F)F)n2)cc1)C(=O)O)C(=O)NCC1CCCOC1 (some centres unmarked) [Compound 1208] | 9.68
COC(=O)[C@H](CNC(=O)C(=O)NCC1CCOCC1)NC(=O)c1ccc(Nc2nc(NC3(c4ccc(Cl)cc4)CC3)nc(OCC(F)(F)F)n2)cc1 [Compound 1456] | 8.46

Same assay, conditions: Hepatitis C virus, Huh-7, 48 h, HCV pseudoparticles (genotype 1a, H77C) in Huh7 cells; average of duplicate; luciferase 2 days after infection

SMILES | pEC50
O=C(NC[C@H](NC(=O)c1ccc(Nc2nc(NC3(c4ccc(Cl)cc4)CC3)nc(OCC(F)(F)F)n2)cc1)C(=O)O)C(=O)Nc1ccc(Oc2ccncc2)cc1 [Compound 3289] | 8.60
O=C(NCCCCNC(=O)c1ccc(Nc2nc(NC3(c4ccc(Cl)cc4)CC3)nc(OCC(F)(F)F)n2)cc1)C(=O)Nc1ccc(F)cc1F [Compound 3397] | 10.09
O=C(NCC(O)CNC(=O)c1ccc(Nc2nc(NC3(c4ccc(Cl)cc4)CC3)nc(OCC(F)(F)F)n2)cc1)C(=O)Nc1ccc(F)cc1 (centres unmarked) [Compound 3365] | 10.62

Same assay, conditions: Hepatitis C virus, Huh-7, 48 h, read-out: Activity (EC50 class), HCV pseudoparticle infection of Huh7 cells, luciferase 2 days after infection; EC50 expressed as class A/B

SMILES | pEC50
O=C(NCC[C@H](NC(=O)c1ccc(Nc2nc(NC3(c4ccc(Cl)cc4)CC3)nc(OCC(F)(F)F)n2)cc1)C(=O)O)C(=O)NCC1CCCOC1 (some centres unmarked) [Compound 1208] | 8.00 to 11.00
COC(=O)[C@H](CCNC(=O)C(=O)NC(C)(C)Cc1ccc(F)cc1)NC(=O)c1ccc(Nc2nc(NC3(c4ccc(Cl)cc4)CC3)nc(OCC(F)(F)F)n2)cc1 [Compound 1319] | 8.00 to 11.00
O=C(NC[C@H](NC(=O)c1ccc(Nc2nc(NC3(c4ccc(Cl)cc4)CC3)nc(OCC(F)(F)F)n2)cc1)C(=O)O)C(=O)NC1(C2CCCCC2)CC1 [Compound 1472] | 8.00 to 11.00
O=C(NCC[C@@H](NC(=O)c1ccc(Nc2nc(NC3(c4ccc(Cl)cc4)CC3)nc(OCC(F)(F)F)n2)cc1)C(=O)O)C(=O)Nc1ccc(F)c(F)c1F [Compound 1538] | 8.00 to 11.00
CC(C)(CNC(=O)C(=O)Nc1ccc(Cl)cc1)CNC(=O)c1ccc(Nc2nc(NC3(c4ccc(Cl)cc4)CC3)nc(OCC(F)(F)F)n2)cc1 [Compound 1559] | 8.00 to 11.00
COC(=O)[C@H](CCNC(=O)C(=O)Nc1ccc(C(F)(F)F)cc1)NC(=O)c1ccc(Nc2nc(NC3(c4ccc(Cl)cc4)CC3)nc(OCC(F)(F)F)n2)cc1 [Compound 1233] | 8.00 to 11.00
COC(=O)[C@H](CNC(=O)C(=O)N[C@H]1C[C@H]2C3C2[C@]31C)NC(=O)c1ccc(Nc2nc(NC3(c4ccc(Cl)cc4)CC3)nc(OCC(F)(F)F)n2)cc1 (some centres unmarked) [Compound 1054] | 8.00 to 11.00
COC(=O)[C@H](CNC(=O)C(=O)NCCc1ccccn1)NC(=O)c1ccc(Nc2nc(NC3(c4ccc(Cl)cc4)CC3)nc(OCC(F)(F)F)n2)cc1 [Compound 1282] | 8.00 to 11.00
COC(=O)[C@H](CNC(=O)C(=O)NCCc1ccccc1)NC(=O)c1ccc(Nc2nc(NC3(c4ccc(Cl)cc4)CC3)nc(OCC(F)(F)F)n2)cc1 [Compound 1284] | 8.00 to 11.00
Cn1cc(NC(=O)C(=O)NCC[C@H](NC(=O)c2ccc(Nc3nc(NC4(c5ccc(Cl)cc5)CC4)nc(OCC(F)(F)F)n3)cc2)C(=O)O)cn1 [Compound 1268] | 8.00 to 11.00
COC(=O)[C@H](CNC(=O)C(=O)NCC1CCOCC1)NC(=O)c1ccc(Nc2nc(NC3(c4ccc(Cl)cc4)CC3)nc(OCC(F)(F)F)n2)cc1 [Compound 1456] | 8.00 to 11.00
O=C(NCC[C@H](NC(=O)c1ccc(Nc2nc(NC3(c4ccc(Cl)cc4)CC3)nc(OCC(F)(F)F)n2)cc1)C(=O)O)C(=O)Nc1cccnc1 [Compound 1280] | 8.00 to 11.00
CC(C)(C)OC(=O)N1CCC(CNC(=O)C(=O)NCC[C@H](NC(=O)c2ccc(Nc3nc(NC4(c5ccc(Cl)cc5)CC4)nc(OCC(F)(F)F)n3)cc2)C(=O)O)CC1 [Compound 1213] | 8.00 to 11.00
O=C(NCC[C@H](NC(=O)c1ccc(Nc2nc(NC3(c4ccc(Cl)cc4)CC3)nc(OCC(F)(F)F)n2)cc1)C(=O)O)C(=O)Nc1ccc(F)cc1 [Compound 1272] | 8.00 to 11.00
COC(=O)[C@H](CNC(=O)C(=O)Nc1cccnc1OC)NC(=O)c1ccc(Nc2nc(NC3(c4ccc(Cl)cc4)CC3)nc(OCC(F)(F)F)n2)cc1 [Compound 1240] | 8.00 to 11.00
CNC(=O)C(=O)NCC(C)(C)CNC(=O)c1ccc(Nc2nc(NC3(c4ccc(Cl)cc4)CC3)nc(OCC(F)(F)F)n2)cc1 [Compound 1553] | 8.00 to 11.00
COC(=O)[C@H](CCNC(=O)C(=O)NCC1CC1(Cl)Cl)NC(=O)c1ccc(Nc2nc(NC3(c4ccc(Cl)cc4)CC3)nc(OCC(F)(F)F)n2)cc1 (some centres unmarked) [Compound 1372] | 8.00 to 11.00

Same assay, conditions: Hepatitis C virus, Huh-7, 48 h, read-out: Activity (EC50 class), HCV pseudoparticles, Huh7 cells, luciferase 2 days after infection; average of duplicates

SMILES | pEC50
O=C(NC[C@H](NC(=O)c1ccc(Nc2nc(NC3(c4ccc(Cl)cc4)CC3)nc(OCC(F)(F)F)n2)cc1)C(=O)O)C(=O)Nc1cccc(-c2cnco2)c1 [Compound 3752] | 8.00 to 11.00
C#Cc1cccc(NC(=O)C(=O)NC[C@H](NC(=O)c2ccc(Nc3nc(NC4(c5ccc(Cl)cc5)CC4)nc(OCC(F)(F)F)n3)cc2)C(=O)Cl)c1 [Compound 3746] | 8.00 to 11.00
COC(=O)[C@H](CCNC(=O)C(=O)Nc1cccc(C2=NC(C)=CC2)c1)NC(=O)c1ccc(Nc2nc(NC3(c4ccc(Cl)cc4)CC3)nc(OCC(F)(F)F)n2)cc1 [Compound 3601] | 8.00 to 11.00
CC(C)(CNC(=O)C(=O)Nc1ccc(Cl)c(Cl)c1)CNC(=O)c1ccc(Nc2nc(NC3(c4ccc(Cl)cc4)CC3)nc(OCC(F)(F)F)n2)cc1 [Compound 3793] | 8.00 to 11.00
Cc1cc(NC(=O)C(=O)NCC(C)(C)CNC(=O)c2ccc(Nc3nc(NC4(c5ccc(Cl)cc5)CC4)nc(OCC(F)(F)F)n3)cc2)ccc1Cl [Compound 3798] | 8.00 to 11.00
O=C(NCC[C@H](NC(=O)c1ccc(Nc2nc(NC3(c4ccc(Cl)cc4)CC3)nc(OCC(F)(F)F)n2)cc1)C(=O)O)C(=O)Nc1ccc(Oc2cccnc2)nc1 [Compound 3624] | 8.00 to 11.00
COC(=O)[C@H](CCNC(=O)C(=O)Nc1cccc(OCc2ccccc2)c1)NC(=O)c1ccc(Nc2nc(NC3(c4ccc(Cl)cc4)CC3)nc(OCC(F)(F)F)n2)cc1 [Compound 3612] | 8.00 to 11.00
COC(=O)[C@H](CNC(=O)C(=O)Nc1cccc(Cl)c1)NC(=O)c1ccc(Nc2nc(NC3(c4ccc(Cl)cc4)CC3)nc(OCC(F)(F)F)n2)cc1 [Compound 3685] | 8.00 to 11.00

Same assay, conditions: Hepatitis C virus, Huh-7, read-out: Activity (EC50 class), HCV pseudoparticles (genotype 1a, H77C) in Huh7 cells; EC50 expressed as class A/B

SMILES | pEC50
O=C(NCc1ccc(F)cc1)C(=O)N1CCCC(CNC(=O)c2ccc(Nc3nc(NC4(c5ccc(Cl)cc5)CC4)nc(OCC(F)(F)F)n3)cc2)C1 (centres unmarked) [Compound 3483] | 8.00 to 11.00
O=C(Nc1ccc(F)cc1F)C(=O)N1CCCC(CNC(=O)c2ccc(Nc3nc(NC4(c5ccc(Cl)cc5)CC4)nc(OCC(F)(F)F)n3)cc2)C1 (centres unmarked) [Compound 3484] | 8.00 to 11.00
O=C(NC[C@H](NC(=O)c1ccc(Nc2nc(NC3(c4ccc(Cl)cc4)CC3)nc(OCC(F)(F)F)n2)cc1)C(=O)O)C(=O)Nc1ccc(Cn2ccnc2)cc1 [Compound 3285] | 8.00 to 11.00
CC(C)(CNC(=O)C(=O)Nc1ccc2ncccc2c1)CNC(=O)c1ccc(Nc2nc(NC3(c4ccc(Cl)cc4)CC3)nc(OCC(F)(F)F)n2)cc1 [Compound 3038] | 8.00 to 11.00
COc1ccc(NC(=O)C(=O)NCC(C)(C)CNC(=O)c2ccc(Nc3nc(NC4(c5ccc(Cl)cc5)CC4)nc(OCC(F)(F)F)n3)cc2)cn1 [Compound 3257] | 8.00 to 11.00
COc1ccc(-c2ccccc2NC(=O)C(=O)NCC(C)(C)CNC(=O)c2ccc(Nc3nc(NC4(c5ccc(Cl)cc5)CC4)nc(OCC(F)(F)F)n3)cc2)cc1 [Compound 3065] | 8.00 to 11.00
O=C(NC[C@H](NC(=O)c1ccc(Nc2nc(NC3(c4ccc(Cl)cc4)CC3)nc(OCC(F)(F)F)n2)cc1)C(=O)O)C(=O)Nc1ccc(Oc2ccncc2)cc1 [Compound 3289] | 8.00 to 11.00
CC(C)(CNC(=O)C(=O)Nc1ccc2cn[nH]c2c1)CNC(=O)c1ccc(Nc2nc(NC3(c4ccc(Cl)cc4)CC3)nc(OCC(F)(F)F)n2)cc1 [Compound 3022] | 8.00 to 11.00
Cc1ccc(NC(=O)C(=O)NCC(C)CNC(=O)c2ccc(Nc3nc(NC4(c5ccc(Cl)cc5)CC4)nc(OCC(F)(F)F)n3)cc2)cc1Cl (centres unmarked) [Compound 3474] | 8.00 to 11.00
COC(=O)[C@H](CCNC(=O)C(=O)Nc1ccc(-c2ccc(C)cc2)cc1)NC(=O)c1ccc(Nc2nc(NC3(c4ccc(Cl)cc4)CC3)nc(OCC(F)(F)F)n2)cc1 [Compound 3305] | 8.00 to 11.00
COC(=O)/C(CCNC(=O)C(=O)Nc1cccc(-c2ccncc2)c1)=N\C(=O)c1ccc(Nc2nc(NC3(c4ccc(Cl)cc4)CC3)nc(OCC(F)(F)F)n2)cc1 [Compound 3591] | 8.00 to 11.00
COC(=O)[C@H](CCNC(=O)C(=O)Nc1ccc(Oc2ccc(F)cc2)cc1)NC(=O)c1ccc(Nc2nc(NC3(c4ccc(Cl)cc4)CC3)nc(OCC(F)(F)F)n2)cc1 [Compound 3301] | 8.00 to 11.00
O=C(NCCCCNC(=O)c1ccc(Nc2nc(NC3(c4ccc(Cl)cc4)CC3)nc(OCC(F)(F)F)n2)cc1)C(=O)Nc1ccccc1 [Compound 3403] | 8.00 to 11.00
CC(C)(CNC(=O)C(=O)Nc1ccc2ncsc2c1)CNC(=O)c1ccc(Nc2nc(NC3(c4ccc(Cl)cc4)CC3)nc(OCC(F)(F)F)n2)cc1F [Compound 3566] | 8.00 to 11.00
O=C(NCCCCNC(=O)c1ccc(Nc2nc(NC3(c4ccc(Cl)cc4)CC3)nc(OCC(F)(F)F)n2)cc1)C(=O)Nc1ccc(F)cc1F [Compound 3397] | 8.00 to 11.00
CC(C)(CNC(=O)C(=O)Nc1nncs1)CNC(=O)c1ccc(Nc2nc(NC3(c4ccc(Cl)cc4)CC3)nc(OCC(F)(F)F)n2)cc1 [Compound 3382] | 8.00 to 11.00
O=C(NC1CCCCC1)C(=O)N1CCCC(CNC(=O)c2ccc(Nc3nc(NC4(c5ccc(Cl)cc5)CC4)nc(OCC(F)(F)F)n3)cc2)C1 (centres unmarked) [Compound 3489] | 8.00 to 11.00
CC(C)(CNC(=O)C(=O)Nc1cccc(C(F)(F)F)c1)CNC(=O)c1ccc(Nc2nc(NC3(c4ccc(Cl)cc4)CC3)nc(OCC(F)(F)F)n2)cc1 [Compound 3019] | 8.00 to 11.00
CC(C)(CNC(=O)C(=O)NOc1ccccc1)CNC(=O)c1ccc(Nc2nc(NC3(c4ccc(Cl)cc4)CC3)nc(OCC(F)(F)F)n2)cc1 [Compound 3064] | 8.00 to 11.00
O=C(NCC(O)CNC(=O)c1ccc(Nc2nc(NC3(c4ccc(Cl)cc4)CC3)nc(OCC(F)(F)F)n2)cc1)C(=O)Nc1ccc(F)cc1 (centres unmarked) [Compound 3365] | 8.00 to 11.00
COC(=O)[C@H](CNC(=O)C(=O)Nc1ccc(N2CC(C)NC(C)C2)cc1)NC(=O)c1ccc(Nc2nc(NC3(c4ccc(Cl)cc4)CC3)nc(OCC(F)(F)F)n2)cc1 (some centres unmarked) [Compound 3092] | 8.00 to 11.00

Same assay, conditions: read-out: Activity (EC50 class); HCV pseudoparticles (genotype 1a, H77C) in Huh7 cells; EC50 expressed as class A/B

SMILES | pEC50
COC(=O)[C@H](CCNC(=O)C(=O)Nc1ccc(C)cc1)NC(=O)c1ccc(Nc2nc(NC3(c4ccc(Cl)cc4)CC3)nc(OCC(F)(F)F)n2)cc1 [Compound 3217] | 8.00 to 11.00
